From the supplement of paper PMC8967900

Tests used:
Test in all cases: selective drug sensitivity score (sDSS, relative to normal bone marrow) (sDSS (score)); higher = more potent and effective on the cell line relative to normal bone marrow cells
Conditions in all cases: 72 h
MOLT-4 = system: MOLT-4
CCRF-CEM = system: CCRF-CEM
JURKAT = system: JURKAT
CCRF-HSB2 = system: CCRF-HSB2
KASUMI-9 = system: KASUMI-9
DND-41 = system: DND-41
ALL-SIL = system: ALL-SIL
HAL-01 = system: HAL-01
RCH-ACV = system: RCH-ACV
COG-LL-402h = system: COG-LL-402h
P12-ICHIKAWA = system: P12-ICHIKAWA
NALL-1 = system: NALL-1
COG-LL-332h = system: COG-LL-332h
SEM cells = system: SEM cells
NALM-16 = system: NALM-16
TMD5 = system: TMD5
MHH-CALL-2 = system: MHH-CALL-2
COG-LL-394h = system: COG-LL-394h
LC4-1 = system: LC4-1
RPMI-8402 = system: RPMI-8402
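Also: ALL cell lines in 384-well plates, five doses spanning 10,000-fold, each plate scaled between vehicle and 100 µmol/L benzalkonium chloride controls, sDSS an adapted area-under-curve metric.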

| Compound | selective drug sensitivity score (MOLT-4) | selective drug sensitivity score (CCRF-CEM) | selective drug sensitivity score (JURKAT) | selective drug sensitivity score (CCRF-HSB2) | selective drug sensitivity score (KASUMI-9) | selective drug sensitivity score (DND-41) | selective drug sensitivity score (ALL-SIL) | selective drug sensitivity score (HAL-01) | selective drug sensitivity score (RCH-ACV) | selective drug sensitivity score (COG-LL-402h) | selective drug sensitivity score (P12-ICHIKAWA) | selective drug sensitivity score (NALL-1) | selective drug sensitivity score (COG-LL-332h) | selective drug sensitivity score (SEM cells) | selective drug sensitivity score (NALM-16) | selective drug sensitivity score (TMD5) | selective drug sensitivity score (MHH-CALL-2) | selective drug sensitivity score (COG-LL-394h) | selective drug sensitivity score (LC4-1) | selective drug sensitivity score (RPMI-8402) |
| --- | --- | --- | --- | --- | --- | --- | --- | --- | --- | --- | --- | --- | --- | --- | --- | --- | --- | --- | --- | --- |
| Nc1cc(C(F)(F)F)c(-c2cc(N3CCOCC3)nc(N3CCOCC3)n2)cn1 [Buparlisib] (top concentration 10000 nM) | 4.38 | 5.28 | 8.18 | 4.18 | 6.58 | -0.32 | 8.28 | 4.98 | 13.3 | 5.58 | 3.28 | 1.28 | 3.58 | 7.08 | 3.98 | -1.82 | 5.28 | 0.38 | 6.08 | 6.88 |
| CCS(=O)(=O)N1CCN(c2ccc(Nc3ncc(C(N)=O)c(NC4CC4)n3)cc2)CC1 [Cerdulatinib] (top concentration 10000 nM) | -7.46 | -6.26 | -8.66 | 1.34 | -1.36 | 2.54 | -0.76 | -11.9 | 13.3 | -2.56 | -4.46 | -8.76 | -4.26 | 2.54 | -11.4 | -4.46 | -8.26 | -8.56 | -9.46 | -5.56 |
| CC(C)[C@H]1C(=O)N[C@@H](CCCNC(=N)N)C(=O)NCC(=O)N[C@@H](CC(=O)O)C(=O)N[C@H](Cc2ccccc2)C(=O)N1C [Cilengitide] (top concentration 10000 nM) | 0 | 0 | 0 | 0 | 0 | 0 | 0 | 6.5 | 0 | 0 | 0 | 11.8 | 0 | 0 | 0 | 7.5 | 7.1 | 0 | 0 | 0 |
| CC(C)(C)c1nc(-c2cccc(NS(=O)(=O)c3c(F)cccc3F)c2F)c(-c2ccnc(N)n2)s1 [Dabrafenib] (top concentration 2500 nM) | -1.52 | 0.58 | 1.08 | 4.48 | 3.58 | -1.52 | 3.48 | 1.18 | 0.88 | 0.48 | 1.18 | -1.42 | 1.68 | -1.52 | -1.52 | 1.18 | 9.18 | -0.22 | 6.48 | -1.12 |
| C[C@H]1O[C@@H](O[C@H]2[C@@H](O)C[C@H](O[C@H]3[C@@H](O)C[C@H](O[C@H]4CC[C@@]5(C)[C@H](CC[C@@H]6[C@@H]5C[C@@H](O)[C@]5(C)[C@@H](C7=CC(=O)OC7)CC[C@]65O)C4)O[C@@H]3C)O[C@@H]2C)C[C@H](O)[C@@H]1O [Digoxin] (top concentration 1000 nM) | 12.3 | 8.9 | 10 | 6.6 | 7.1 | 2.4 | 5.6 | 9.9 | 8.1 | 6.4 | 8.2 | 6.3 | 9.8 | 10 | 4.9 | 6.9 | 11.9 | 4.1 | 7.8 | 8.3 |
| C[C@H](Nc1ncnc2nc[nH]c12)c1cc2cccc(Cl)c2c(=O)n1-c1ccccc1 [Duvelisib] (top concentration 500 nM) | -0.94 | 4.36 | -0.94 | -0.44 | 3.36 | -0.14 | -0.94 | 9.76 | 21 | 4.96 | -0.44 | -0.94 | 2.46 | -0.54 | -0.94 | -0.94 | -0.94 | -0.84 | -0.94 | -0.94 |
| NC(=O)/C(=C/n1cnc(-c2cc(C(F)(F)F)cc(C(F)(F)F)c2)n1)c1cncnc1 [Eltanexor] (top concentration 10000 nM) | 11.4 | 9.66 | 9.76 | 12 | 11.1 | 12.6 | 10.3 | 5.46 | 12.7 | 12.1 | 7.96 | 2.76 | 9.46 | 3.96 | -0.84 | -1.84 | 11.4 | 4.66 | 8.16 | 9.36 |
| COC(=O)N[C@@H](C)CNc1nccc(-c2cn(C(C)C)nc2-c2cc(Cl)cc(NS(C)(=O)=O)c2F)n1 [Encorafenib] (top concentration 1000 nM) | 0 | 0.2 | 1.7 | 1.8 | 1.4 | 0 | 0 | 0 | 1 | 0 | 1.7 | 0 | 0 | 0.1 | 0 | 0 | 1.7 | 0.2 | 2.9 | 0 |
| Nc1ccccc1NC(=O)c1ccc(CNC(=O)OCc2cccnc2)cc1 [Entinostat] (top concentration 10000 nM) | 1.48 | 3.78 | 2.68 | 3.28 | 8.28 | 1.28 | 12.1 | 2.58 | 9.98 | 4.98 | 7.58 | -0.82 | -0.62 | 12.9 | 0.28 | 5.38 | 8.98 | -3.72 | 4.48 | 5.08 |
| C#Cc1cccc(Nc2ncnc3cc(OCCOC)c(OCCOC)cc23)c1 [Erlotinib] (top concentration 10000 nM) | 1.56 | 2.06 | 2.26 | 4.66 | 3.26 | -1.24 | 5.36 | 0.46 | 4.26 | 4.06 | 1.56 | -1.24 | 1.96 | 1.86 | -1.24 | -0.34 | 1.76 | 2.66 | 8.66 | 2.26 |
| O=C(Nc1nc2cccc(-c3ccc(CN4CCS(=O)(=O)CC4)cc3)n2n1)C1CC1 [Filgotinib] (top concentration 10000 nM) | -5.34 | -1.34 | -1.34 | -2.54 | 0.26 | 1.66 | -0.24 | 5.66 | 1.56 | -1.54 | -1.64 | 5.86 | -1.84 | 1.96 | -5.34 | 0.16 | 5.36 | -3.34 | -1.94 | -2.24 |
| C[C@H]1C=C2C(=O)O[C@H]3CC[C@@H](C1)[C@@]23O [Galiellalactone] (top concentration 25000 nM) | -0.44 | 5.86 | 1.66 | 2.76 | 6.76 | 3.86 | 5.56 | 6.06 | 7.76 | 3.76 | 1.86 | -4.54 | 6.06 | 3.56 | 6.06 | 1.46 | 4.16 | -0.74 | 7.16 | 0.06 |
| CN(C)C1CCN(C(=O)c2ccc(NC(=O)Nc3ccc(-c4nc(N5CCOCC5)nc(N5CCOCC5)n4)cc3)cc2)CC1 [Gedatolisib] (top concentration 1000 nM) | 5.46 | 7.26 | 2.66 | 8.86 | 9.36 | 4.46 | 2.66 | -4.54 | 17.5 | 8.56 | 3.16 | 1.16 | 4.96 | 1.16 | 1.46 | 0.66 | 3.26 | 0.56 | 3.06 | 3.66 |
| Nc1ccn([C@@H]2O[C@H](CO)[C@@H](O)C2(F)F)c(=O)n1 [Gemcitabine] (top concentration 1000 nM) | 10.4 | 14.5 | 9.16 | 22 | 16.3 | 9.26 | 12.1 | 20.4 | 18.5 | 18.6 | 15.8 | 10.3 | 17.8 | 24.9 | 8.06 | -7.84 | 21.6 | -8.04 | 16.7 | 9.56 |
| COc1cc2c(cc1-c1c(C)noc1C)ncc1[nH]c(=O)n([C@H](C)c3ccccn3)c12 [I-BET151] (top concentration 10000 nM) | -4.34 | 0.96 | 0.36 | 0.06 | 11.2 | 0.86 | -2.14 | 1.26 | 12.3 | 5.46 | 4.06 | -0.14 | -2.24 | 10.5 | 2.06 | -3.54 | 6.96 | 0.86 | 7.26 | 4.36 |
| O=C1CCc2c(Oc3ccc4c(c3)[C@@H]3[C@H](O4)[C@H]3c3nc4cc(C(F)(F)F)ccc4[nH]3)ccnc2N1 [Lifirafenib (BGB-283)] (top concentration 10000 nM) | 1.38 | 4.18 | 5.28 | 8.88 | 5.58 | 1.18 | 30 | 6.48 | 10.3 | 2.38 | 3.18 | 8.28 | 8.18 | 15.7 | -0.02 | 15.9 | 4.88 | 6.88 | 3.28 | 2.28 |
| NC(=O)N1CCC(CC(=O)N2CCC([C@H]3c4ncc(Br)cc4CCc4cc(Cl)cc(Br)c43)CC2)CC1 [Lonafarnib] (top concentration 100000 nM) | 10.5 | 9.74 | 5.74 | 9.14 | 9.14 | 4.54 | 9.34 | 3.44 | 8.64 | 3.64 | 6.74 | 1.54 | 10.1 | 14.1 | 4.04 | -3.36 | 9.24 | 3.04 | 3.44 | 19.2 |
| NC1(c2ccc(-c3nc4ccn5c(=O)[nH]nc5c4cc3-c3ccccc3)cc2)CCC1 [MK-2206] (top concentration 1000 nM) | 2.76 | 6.36 | -0.24 | 3.26 | 4.36 | -1.64 | 2.96 | 6.96 | 13.2 | 2.76 | 1.66 | 6.26 | 2.86 | 4.36 | 2.46 | 7.36 | 9.66 | -1.64 | 0.06 | 1.96 |
